Measurements as given in patent US12398120B2, “Substituted hydantoinamides as ADAMTS7 antagonists” (BAYER AKTIENGESELLSCHAFT, priority 2019, dated 2025).

What follows are molecules tested against ADAMTS4 (Homo sapiens (Human), UniProt O75173) (assay: Selectivity assay for ADAMTS-7 modulators: ADAMTS4 (FRET substrate)). Settings: ADAMTS4 (R&D 4307-AD) 50 nM, substrate Dabcyl-EEVKAKVQPY-Glu(Edans)-NH2 1 μM, 120 min, 32° C.
Type: biochemical
Summary of the method: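 Activity read as rising fluorescence after a FRET substrate is cleaved by human ADAMTS4, with reactions started by substrate addition to wells holding compound or DMSO. Percent inhibition plotted against concentration gave IC50.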

Sequence of ADAMTS4 (O75173 213-685): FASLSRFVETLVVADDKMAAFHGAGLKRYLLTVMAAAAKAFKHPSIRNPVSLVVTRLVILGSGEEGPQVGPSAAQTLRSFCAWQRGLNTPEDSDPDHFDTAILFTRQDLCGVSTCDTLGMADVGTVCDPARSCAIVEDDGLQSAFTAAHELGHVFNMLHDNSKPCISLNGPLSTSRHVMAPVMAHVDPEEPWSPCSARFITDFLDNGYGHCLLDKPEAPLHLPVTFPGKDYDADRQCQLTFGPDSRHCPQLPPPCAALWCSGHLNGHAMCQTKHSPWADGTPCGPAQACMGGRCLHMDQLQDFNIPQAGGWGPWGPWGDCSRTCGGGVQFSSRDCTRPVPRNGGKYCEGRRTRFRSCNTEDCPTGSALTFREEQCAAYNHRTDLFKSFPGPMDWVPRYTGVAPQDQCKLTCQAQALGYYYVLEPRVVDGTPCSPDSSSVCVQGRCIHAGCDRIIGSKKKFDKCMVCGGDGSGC

| Compound | IC50 [µM] |
| --- | --- |
| O=C1NC(=O)C(CNC(=O)c2ccccc2-c2ccc(C(F)(F)F)cc2)(c2cscn2)N1 (racemic) [Example 196, Rac-N-{[2,5-Dioxo-4-(1,3-Thiazol-4-Yl)Imidazolidin-4-Yl]Methyl}-4′-(Trifluoromethyl)[Biphenyl]-2-Carboxamide] | 30 |
| Cn1ccnc1C1(CNC(=O)c2ccc(F)cc2-c2ccc(C(F)(F)F)cc2)NC(=O)NC1=O (single isomer, unassigned; ent-5) [Example 150, Ent-5-Fluoro-N-{[4-(1-Methyl-1H-Imidazol-2-Yl)-2,5-Dioxoimidazolidin-4-Yl]Methyl}-4′-(Trifluoromethyl)[Biphenyl]-2-Carboxamide] | 1.85 |
| O=C1NC(=O)[C@](CNC(=O)c2ccc(Cl)cc2-c2ccc(Cl)cc2)(C2CC2)N1 [Example 232, 4′,5-Dichloro-N-{[(4R)-4-Cyclopropyl-2,5-Dioxoimidazolidin-4-Yl]Methyl}[1,1′-Biphenyl]-2-Carboxamide] | 3.7 |
| O=C1NC(=O)C(CNC(=O)c2ccccc2-c2ccc(C(F)(F)F)nc2)(C2CCOCC2)N1 (racemic) [Example 36, Rac-N-{[2,5-Dioxo-4-(Tetrahydro-2H-Pyran-4-Yl)Imidazolidin-4-Yl]Methyl}-2-[6-(Trifluoromethyl)Pyridin-3-Yl]Benzamide] | > 50 |
| Cc1cnoc1C1(CNC(=O)c2ccccc2-c2ccc(C(F)(F)F)cc2)NC(=O)NC1=O (racemic) [Example 59, Rac-N-{[4-(4-Methyl-1,2-Oxazol-5-Yl)-2,5-Dioxoimidazolidin-4-Yl]Methyl}-4′-(Trifluoromethyl)[Biphenyl]-2-Carboxamide] | 23 |
| Cn1ccnc1C1(CNC(=O)c2ccc(F)cc2-c2ccc(C3CC3(F)F)cc2)NC(=O)NC1=O (stereo not shown) [Example 141, 4′-(2,2-Difluorocyclopropyl)-5-Fluoro-N-{[4-(1-Methyl-1H-Imidazol-2-Yl)-2,5-Dioxoimidazolidin-4-Yl]Methyl}[1,1′-Biphenyl]-2-Carboxamide] | 3.6 |
| O=C1NC(=O)C(CNC(=O)c2ccccc2-c2ccc(C(F)(F)F)nc2)(c2ncsc2C2CC2)N1 (stereo not drawn) [Example 274, Ent-N-{[4-(5-Cyclopropyl-1,3-Thiazol-4-Yl)-2,5-Dioxoimidazolidin-4-Yl]Methyl}-2-[6-(Trifluoromethyl)Pyridin-3-Yl]Benzamide] | 3.8 |
| Cc1nsnc1C1(CNC(=O)c2ccccc2-c2ccc(C(F)(F)F)nc2)NC(=O)NC1=O (racemic) [Example 53, Rac-N-{[4-(4-Methyl-1,2,5-Thiadiazol-3-Yl)-2,5-Dioxoimidazolidin-4-Yl]Methyl}-2-[6-(Trifluoromethyl)Pyridin-3-Yl]Benzamide] | 41 |
| O=C1NC(=O)[C@](CNC(=O)c2ccc(F)cc2-c2ccc(C3CC3)cc2)(C2CC2)N1 [Example 104, 4′-Cyclopropyl-N-{[(4R)-4-Cyclopropyl-2,5-Dioxoimidazolidin-4-Yl]Methyl}-5-Fluoro[Biphenyl]-2-Carboxamide] | 8.7 |
| O=C1NC(=O)C(CNC(=O)c2ccccc2-c2ccc(C(F)(F)F)cc2)(c2ccnn2C(F)F)N1 (stereo not drawn) [Example 261, Ent-N-({4-[1-(Difluoromethyl)-1H-Pyrazol-5-Yl]-2,5-Dioxoimidazolidin-4-Yl}Methyl)-4′-(Trifluoromethyl)[Biphenyl]-2-Carboxamide] | > 50 |
| Cc1scnc1C1(CNC(=O)c2ccc(Cl)cc2-c2ccc(C(F)(F)F)cc2)NC(=O)NC1=O (single isomer, unassigned; ent-5) [Example 16, Ent-5-Chloro-N-{[4-(5-Methyl-1,3-Thiazol-4-Yl)-2,5-Dioxoimidazolidin-4-Yl]Methyl}-4′-(Trifluoromethyl)[Biphenyl]-2-Carboxamide] | 3.5 |
| Cn1nccc1C1(CNC(=O)c2ccc(F)cc2-c2ccc(C(F)(F)F)cc2)NC(=O)NC1=O (single isomer, unassigned; ent-5) [Example 184, Ent-5-Fluoro-N-{[4-(1-Methyl-1H-Pyrazol-5-Yl)-2,5-Dioxoimidazolidin-4-Yl]Methyl}-4′-(Trifluoromethyl)[Biphenyl]-2-Carboxamide] | 9.37 |
| O=C1NC(=O)C(CNC(=O)c2ccccc2-c2ccc(C(F)(F)F)cc2)(c2ccnn2CC(F)(F)F)N1 (racemic) [Example 6, Rac-N-({2,5-Dioxo-4-[1-(2,2,2-Trifluoroethyl)-1H-Pyrazol-5-Yl]Imidazolidin-4-Yl}Methyl)-4′-(Trifluoromethyl)[Biphenyl]-2-Carboxamide] | 6.2 |
| Cc1ccc(-c2ccccc2C(=O)NCC2(c3nccn3C)NC(=O)NC2=O)cc1 (single isomer, unassigned; ent-4) [Example 146, Ent-4′-Methyl-N-{[4-(1-Methyl-1H-Imidazol-2-Yl)-2,5-Dioxoimidazolidin-4-Yl]Methyl}[Biphenyl]-2-Carboxamide] | 1.9 |
| Cn1nccc1C1(CNC(=O)c2ccccc2-c2ccc(S(C)(=O)=O)cc2)NC(=O)NC1=O (stereo not drawn) [Example 194, Ent-N-{[4-(1-Methyl-1H-Pyrazol-5-Yl)-2,5-Dioxoimidazolidin-4-Yl]Methyl}-4′-(Methylsulfonyl)[Biphenyl]-2-Carboxamide] | 8.9 |
| CCn1nccc1C1(CNC(=O)c2ccccc2-c2ccc(C(F)(F)F)cc2)NC(=O)NC1=O (stereo not drawn) [Example 80, Ent-N-{[4-(1-Ethyl-1H-Pyrazol-5-Yl)-2,5-Dioxoimidazolidin-4-Yl]Methyl}-4′-(Trifluoromethyl)[Biphenyl]-2-Carboxamide] | 5.73 |
| Cc1ccc(-c2ccccc2C(=O)NCC2(c3nccs3)NC(=O)NC2=O)cc1 (stereo not drawn) [Example 201, Ent-N-{[2,5-Dioxo-4-(1,3-Thiazol-2-Yl)Imidazolidin-4-Yl]Methyl}-4′-Methyl[Biphenyl]-2-Carboxamide] | 8.1 |
| Cn1ccnc1C1(CNC(=O)c2ccc(Cl)cc2-c2ccc(Cl)cc2)NC(=O)NC1=O (single isomer, unassigned; ent-4) [Example 162, Ent-4′,5-Dichloro-N-{[4-(1-Methyl-1H-Imidazol-2-Yl)-2,5-Dioxoimidazolidin-4-Yl]Methyl}[Biphenyl]-2-Carboxamide] | 0.463 |
| Cc1ccc(C(=O)NCC2(c3nccn3C)NC(=O)NC2=O)c(-c2ccc(C3CC3(F)F)cc2)c1 (stereo not shown) [Example 135, 4′-(2,2-Difluorocyclopropyl)-5-Methyl-N-{[4-(1-Methyl-1H-Imidazol-2-Yl)-2,5-Dioxoimidazolidin-4-Yl]Methyl}[1,1′-Biphenyl]-2-Carboxamide] | 1.3 |
| O=C1NC(=O)C(CNC(=O)c2ccc(F)cc2-c2ccc(C(F)(F)F)cc2)(c2ncsc2C(F)(F)F)N1 (racemic) [Example 267, Rac-N-({2,5-Dioxo-4-[5-(Trifluoromethyl)-1,3-Thiazol-4-Yl]Imidazolidin-4-Yl}Methyl)-5-Fluoro-4′-(Trifluoromethyl)[Biphenyl]-2-Carboxamide] | 19 |
| CC(C)(C)C1(CNC(=O)c2ccccc2-c2ccc(C(F)(F)F)cc2)NC(=O)NC1=O (racemic) [Example 25, Rac-N-[(4-Tert-Butyl-2,5-Dioxoimidazolidin-4-Yl)Methyl]-4′-(Trifluoromethyl)[Biphenyl]-2-Carboxamide] | > 50 |
| Cc1ccc(-c2ccccc2C(=O)NCC2(C(C)C)NC(=O)NC2=O)cc1 (stereo not drawn) [Example 205, Ent-N-[(4-Isopropyl-2,5-Dioxoimidazolidin-4-Yl)Methyl]-4′-Methyl[Biphenyl]-2-Carboxamide] | 12 |
